Experimental data reported in ChEMBL document CHEMBL4840380, “The Psychedelic Renaissance: Addressing Potential Adverse Effects in a Therapeutic Setting” (ACS Med Chem Lett, 2021).

Assays:
[1] = biological target: 5-hydroxytryptamine receptor 2A (Homo sapiens) (UniProt P28223); assay: Agonist activity at 5HT2A receptor (unknown origin) expressed in HEK293 cells assessed as maximal effect by FLIPR calcium flux assay relative to control; format: functional, cell-based; details: filed as agonist
Mus musculus = assay: Antipsychotic activity in sc dosed C57BL/6 mouse assessed as DOI-induced head twitching observed for 20 mins; format: functional, organism-based; details: dose 1-100 mg/kg

Sequence of 5-hydroxytryptamine receptor 2A (Homo sapiens) (P28223 whole entry): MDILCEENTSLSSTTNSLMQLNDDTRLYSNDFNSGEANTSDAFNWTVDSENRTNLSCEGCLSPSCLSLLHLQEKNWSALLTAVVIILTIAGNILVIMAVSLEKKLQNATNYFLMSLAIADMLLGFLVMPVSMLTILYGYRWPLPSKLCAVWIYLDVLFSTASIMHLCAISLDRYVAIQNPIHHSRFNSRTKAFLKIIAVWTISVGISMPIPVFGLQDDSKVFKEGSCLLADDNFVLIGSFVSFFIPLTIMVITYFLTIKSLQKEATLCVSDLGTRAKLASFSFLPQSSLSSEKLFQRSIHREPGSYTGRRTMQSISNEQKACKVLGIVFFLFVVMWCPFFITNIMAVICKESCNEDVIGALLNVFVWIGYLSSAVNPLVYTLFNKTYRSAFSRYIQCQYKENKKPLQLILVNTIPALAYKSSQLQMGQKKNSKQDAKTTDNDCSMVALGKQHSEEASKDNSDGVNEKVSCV

| Structure (SMILES) | Emax [1] | Activity (Mus musculus) |
| --- | --- | --- |
| CN(C)CCc1c[nH]c2ccccc12 | 93.4% |  |
| CCN(C)CCc1c[nH]c2ccc(F)cc12 | 87.6% | Dose-Dependent Effect |
| CCCN(CC)CCc1c[nH]c2ccc(F)cc12 | 104% | Dose-Dependent Effect |
